Converted amounts (≈) assume the structure as drawn.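 Test compounds were applied to cells in 96-well plates for 48 hours at 5 doses. GI50 marks 50% less growth. The concentration for full growth arrest is given as TGI.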
Experiments:
Test in all cases: NCI anticancer screen, dose series, 48 h
[1] = tested on: SF-268 CNS
[2] = tested on: HOP-92 NSCLC
[3] = tested on: MALME-3M melanoma
[4] = tested on: RPMI-8226 leukemia
[5] = tested on: CAKI-1 renal
[6] = tested on: HT29 colon
[7] = tested on: A498 renal
[8] = tested on: KM12 colon
[9] = tested on: IGROV1 ovarian
[10] = tested on: T-47D breast
[11] = tested on: PC-3 prostate
[12] = tested on: DU-145 prostate
[13] = tested on: OVCAR-3 ovarian
[14] = tested on: NCI-H522 lung

| SMILES | TGI [1] | TGI [2] | TGI [3] | TGI [4] [µM] | TGI [5] [µM] | TGI [6] [µM] | TGI [7] [µM] | TGI [8] | TGI [9] [µM] | TGI [10] [µM] | TGI [11] [µM] | TGI [12] | TGI [13] | TGI [14] [µM] | GI50 [1] [µg/mL] | GI50 [12] [µg/mL] | GI50 [2] [µg/mL] | GI50 [3] [µg/mL] | GI50 [13] [µg/mL] | GI50 [8] [µg/mL] |
| --- | --- | --- | --- | --- | --- | --- | --- | --- | --- | --- | --- | --- | --- | --- | --- | --- | --- | --- | --- | --- |
| ICC1CCCO1 (stereo not drawn) | > 100 µM | > 100 µM | > 100 µM | > 100 | > 100 | > 100 | > 100 | > 100 µM | > 100 |  |  |  |  |  |  |  |  |  |  |  |
| O=C=C=P(c1ccccc1)(c1ccccc1)c1ccccc1 | > 100 µM | 85.1 µM | > 100 µM | > 100 | > 100 |  |  | > 100 µM | > 100 |  |  |  |  |  |  |  |  |  |  |  |
| CCOP(=O)(C/C=C/Cn1ncc(=O)[nH]c1=O)OCC | > 100 µM | > 100 µM | > 100 µM | > 100 | > 100 | > 100 | > 100 | > 100 µM | > 100 | > 100 | > 100 | > 100 µM | > 100 µM | > 100 |  |  |  |  |  |  |
| Cc1nc2nc(C)n(CCN3CCOCC3)c(=O)c2c(-c2cccc([N+](=O)[O-])c2)c1C(=O)CCCCCCCCCCN1CCC(c2ccccc2)(c2ccccc2)CC1 | 4.26 µg/mL | 1.25 µg/mL | 4.22 µg/mL |  |  |  |  | 4.46 µg/mL |  |  |  | 4.56 µg/mL | 4.19 µg/mL |  | 2.26 (≈ 2.78 µM) | 2.51 (≈ 3.09 µM) | 0.0976 (≈ 0.12 µM) | 2.24 (≈ 2.75 µM) | 2.21 (≈ 2.72 µM) | 2.43 (≈ 2.99 µM) |
| CC1(C)OCC(CO)(CO)CO1 | > 100 µM | > 100 µM |  |  |  | > 100 | > 100 | > 100 µM |  | > 100 | > 100 | > 100 µM | > 100 µM | > 100 |  |  |  |  |  |  |
| O=Cc1cn(CCCCCCCCn2cc(C=O)c3ccccc32)c2ccccc12 | > 10 µM |  | > 10 µM | > 10 | > 10 | > 10 | 3.23 | > 10 µM | > 10 | > 10 | > 10 | > 10 µM | > 10 µM | > 10 |  |  |  |  |  |  |
| c1ccc(C2=NN2c2ccccc2)cc1 | > 100 µM | > 100 µM | > 100 µM |  | > 100 | > 100 | > 100 | > 100 µM | > 100 | > 100 | > 100 | > 100 µM | > 100 µM | > 100 |  |  |  |  |  |  |
